Reference: BindingDB's records for doi:10.1038/nsb921 (Mahidol University, 2003)

Columns and labels:
Experiment in all cases: Antimalarial Testing In Vitro (IC50) and Measurement of Inhibition Constant (Ki)
Settings in all cases: pH 7; 25 °C
[1] = biological target: Bifunctional dihydrofolate reductase-thymidylate synthase (Plasmodium falciparum (isolate K1 / Thailand), UniProt Q8I1R6)
Method: (§1) The activity of pfDHFR-TS was determined spectrophotometrically using a UV-Vis spectrophotometer.

[2] = biological target: Bifunctional dihydrofolate reductase-thymidylate synthase (Plasmodium falciparum (isolate K1 / Thailand), UniProt P13922)
Chain of Bifunctional dihydrofolate reductase-thymidylate synthase (Plasmodium falciparum (isolate K1 / Thailand), UniProt P13922) (P13922 whole entry): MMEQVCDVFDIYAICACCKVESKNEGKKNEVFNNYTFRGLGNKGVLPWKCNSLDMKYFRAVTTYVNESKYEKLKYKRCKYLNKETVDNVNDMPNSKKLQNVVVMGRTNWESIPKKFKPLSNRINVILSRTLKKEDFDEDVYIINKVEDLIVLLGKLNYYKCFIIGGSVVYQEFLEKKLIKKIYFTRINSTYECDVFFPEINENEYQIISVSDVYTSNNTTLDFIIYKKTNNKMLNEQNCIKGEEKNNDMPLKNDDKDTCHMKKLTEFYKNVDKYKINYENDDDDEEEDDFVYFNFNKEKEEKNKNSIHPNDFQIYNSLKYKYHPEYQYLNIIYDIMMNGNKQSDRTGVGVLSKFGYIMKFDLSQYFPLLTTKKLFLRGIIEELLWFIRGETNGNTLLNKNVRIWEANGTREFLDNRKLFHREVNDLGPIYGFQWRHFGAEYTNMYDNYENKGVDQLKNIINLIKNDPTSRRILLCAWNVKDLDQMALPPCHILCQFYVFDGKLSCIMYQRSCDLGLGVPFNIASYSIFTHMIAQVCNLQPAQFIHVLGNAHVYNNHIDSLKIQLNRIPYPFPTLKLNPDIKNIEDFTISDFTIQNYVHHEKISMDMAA
Method: as §1

[3] = biological target: Bifunctional dihydrofolate reductase-thymidylate synthase [N51I,C59R,S108N,I164L] (Plasmodium falciparum (isolate K1 / Thailand), UniProt Q8I1R6, C59R/I164L/N51I/S108N)
Chain of Bifunctional dihydrofolate reductase-thymidylate synthase [N51I,C59R,S108N,I164L] (Q8I1R6 whole entry N51I/C59R/S108N/I164L): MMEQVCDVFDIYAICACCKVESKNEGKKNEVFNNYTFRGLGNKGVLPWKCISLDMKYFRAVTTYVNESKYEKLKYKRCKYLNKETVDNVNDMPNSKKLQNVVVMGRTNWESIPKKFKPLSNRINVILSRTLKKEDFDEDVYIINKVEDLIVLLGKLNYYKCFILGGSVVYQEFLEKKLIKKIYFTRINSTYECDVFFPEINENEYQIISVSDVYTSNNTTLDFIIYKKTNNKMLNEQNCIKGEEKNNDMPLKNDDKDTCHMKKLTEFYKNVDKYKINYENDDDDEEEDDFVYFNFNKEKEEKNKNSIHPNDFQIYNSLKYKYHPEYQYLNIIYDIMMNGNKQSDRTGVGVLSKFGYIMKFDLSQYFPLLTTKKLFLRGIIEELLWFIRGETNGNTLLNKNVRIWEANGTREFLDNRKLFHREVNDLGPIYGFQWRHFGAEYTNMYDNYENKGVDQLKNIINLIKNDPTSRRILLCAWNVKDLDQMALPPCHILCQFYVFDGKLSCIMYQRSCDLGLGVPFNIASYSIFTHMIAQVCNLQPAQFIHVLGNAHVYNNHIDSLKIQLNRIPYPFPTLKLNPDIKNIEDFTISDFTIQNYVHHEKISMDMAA
Method: as §1

Chain of Bifunctional dihydrofolate reductase-thymidylate synthase (Plasmodium falciparum (isolate K1 / Thailand), UniProt Q8I1R6) (Q8I1R6 whole entry): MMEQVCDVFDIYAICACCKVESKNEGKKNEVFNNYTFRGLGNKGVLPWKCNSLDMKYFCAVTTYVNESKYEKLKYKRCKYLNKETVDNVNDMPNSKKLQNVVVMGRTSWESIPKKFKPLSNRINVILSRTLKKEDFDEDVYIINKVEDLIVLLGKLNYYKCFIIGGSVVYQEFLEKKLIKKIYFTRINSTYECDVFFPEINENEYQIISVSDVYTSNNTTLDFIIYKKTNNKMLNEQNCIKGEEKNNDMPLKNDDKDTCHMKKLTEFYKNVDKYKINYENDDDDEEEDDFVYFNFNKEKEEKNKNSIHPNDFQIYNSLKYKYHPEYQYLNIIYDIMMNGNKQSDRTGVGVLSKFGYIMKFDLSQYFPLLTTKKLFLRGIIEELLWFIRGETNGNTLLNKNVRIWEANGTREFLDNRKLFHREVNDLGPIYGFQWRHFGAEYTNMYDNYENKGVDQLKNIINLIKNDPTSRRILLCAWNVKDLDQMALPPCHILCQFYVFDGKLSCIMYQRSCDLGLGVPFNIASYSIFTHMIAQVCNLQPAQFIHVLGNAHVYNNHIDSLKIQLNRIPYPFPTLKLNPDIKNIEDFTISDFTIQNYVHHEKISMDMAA

SMILES	IC50 [1]	Ki [1]	IC50 [2]	Ki [2]	IC50 [3]	Ki [3]
CC1(C)N=C(N)N=C(N)N1c1ccc(Cl)cc1	37 nM	0.3 nM	2400 nM	6.2 nM	> 100000 nM	254 nM
CC1(C)N=C(N)N=C(N)N1OCCCOc1cc(Cl)c(Cl)cc1Cl [6,6-dimethyl-1-[3-(2,4,5-trichlorophenoxy)propoxy]-1,6-dihydro-1,3,5-triazine-2,4-diamine]	0.57 nM	0.011 nM	2.3 nM	0.02 nM	18 nM	0.037 nM
